From paper PMC4335062, “Data-Driven Prediction and Design of bZIP Coiled-Coil Interactions” (PLoS Computational Biology, 2015)
Read-outs that look alike come from different tables or passages of the source. Where no end group is shown, it is not given here.

Key:
Assay in all cases: Direct-binding FRET assay
[1] = molecular target: FOS (Homo sapiens, UniProt P01100); design: made in house; conditions: read-out: Kd
Method: (§1) The direct binding assay was performed manually in 384-well plates and is similar to a previously described assay. Wells were filled with 20 μL of 1 mM TCEP-HCl. A 4 μM stock of acceptor protein was made fresh in 1 mM TCEP-HCl, and 20 μL was titrated in 2-fold dilutions over the wells. […] The direct-binding FRET data were fit as previously described. Briefly, the Kd of the designed peptide homodimer was experimentally determined and used with previously determined target homodimer Kd values to determine the heterodimer Kd. The homodimer Kd values used for the human bZIPs were from; experiments done by […] et al. used the same protein constructs for the human bZIP proteins, the same buffer conditions, and the same assay. The fitting used a system of ordinary differential equations to describe the concentrations of homo and heterodimers formed by the donor (D) and acceptor (A) as a function of the heterodimer Kd. MATLAB was used to simulate the binding experiment for different Kd values, and the value that gave the best agreement between simulation and experiment was assigned. A minimum 15% change in the donor fluorescence upon titrating the acceptor peptide from 0 to 1000 nM was required for a fit to be attempted. If this minimum was not met, the interaction was classified as “NS” for no signal change. […] For such curves, we removed the first five points and re-fit the data.

[2] = molecular target: ATF6B (Homo sapiens, UniProt Q99941); design: made in house; conditions: read-out: Kd
Method: as §1

[3] = molecular target: MAFG (Homo sapiens, UniProt O15525); design: made in house; conditions: mean or single, read-out: Kd
Method: as §1

[4] = molecular target: JUN (Homo sapiens, UniProt P05412); design: made in house; conditions: mean or single, read-out: Kd
Method: as §1

[5] = molecular target: T1, ATF4 (Homo sapiens, UniProt P18848); conditions: read-out: Kd
T1 construct: made in house
T1 sequence (P18848 278-341 limits assumed): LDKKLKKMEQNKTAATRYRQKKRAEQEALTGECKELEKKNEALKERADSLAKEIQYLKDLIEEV
Method: as §1

[6] = molecular target: T2, XBP1 (Homo sapiens, UniProt P17861); conditions: mean or single, read-out: Kd
T2 construct: made in house
T2 sequence (P17861 70-133 limits assumed): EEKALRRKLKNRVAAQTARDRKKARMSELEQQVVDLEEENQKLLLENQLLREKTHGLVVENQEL
Method: as §1

[7] = molecular target: T3, CREB1 (Homo sapiens, UniProt P16220); conditions: mean or single, read-out: Kd
T3 construct: made in house
T3 sequence (P16220 269-327 limits assumed): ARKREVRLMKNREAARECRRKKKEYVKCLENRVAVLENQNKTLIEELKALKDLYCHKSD
Method: as §1

[8] = molecular target: T4, ATF3 (Homo sapiens, UniProt P18847); conditions: mean or single, read-out: Kd
T4 construct: made in house
T4 sequence (P18847 86-149 limits assumed): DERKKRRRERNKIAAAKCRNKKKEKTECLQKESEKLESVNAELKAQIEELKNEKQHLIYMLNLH
Method: as §1

[9] = molecular target: T5, MAFF (Homo sapiens, UniProt Q9ULX9); conditions: read-out: Kd
T5 construct: made in house
T5 sequence (Q9ULX9 51-114 limits assumed): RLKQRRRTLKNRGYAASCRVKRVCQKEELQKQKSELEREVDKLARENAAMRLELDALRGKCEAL
Method: as §1

[10] = molecular target: T6, NFE2L3 (Homo sapiens, UniProt Q9Y4A8); conditions: mean or single, read-out: Kd
T6 construct: made in house
T6 sequence (Q9Y4A8 578-641 limits assumed): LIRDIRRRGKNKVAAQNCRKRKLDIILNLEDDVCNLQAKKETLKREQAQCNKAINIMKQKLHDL
Method: as §1

[11] = molecular target: T7, NFE2 (Homo sapiens, UniProt Q16621); conditions: mean or single, read-out: Kd
T7 construct: made in house
T7 sequence (Q16621 266-329 limits assumed): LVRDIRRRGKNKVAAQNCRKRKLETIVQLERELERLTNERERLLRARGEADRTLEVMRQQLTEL
Method: as §1

[12] = 4°C, N-terminal rhodamine design, mean or single
[13] = 23°C, N-terminal rhodamine design, mean or single
[14] = 37°C, C-terminal rhodamine design, repeat 1
[15] = 37°C, C-terminal rhodamine design, repeat 2
[16] = 4°C, C-terminal rhodamine design
[17] = 23°C, C-terminal rhodamine design
[18] = 23°C, N-terminal rhodamine design
[19] = 37°C, C-terminal rhodamine design
[20] = 37°C, N-terminal rhodamine design
[21] = 4°C, N-terminal rhodamine design
[22] = 4°C, C-terminal rhodamine design, mean or single
[23] = 4°C, N-terminal rhodamine design, repeat 1
[24] = 23°C, C-terminal rhodamine design, mean or single
[25] = 23°C, N-terminal rhodamine design, repeat 1

Sequence of ATF6B (Q99941 325-388 limits assumed): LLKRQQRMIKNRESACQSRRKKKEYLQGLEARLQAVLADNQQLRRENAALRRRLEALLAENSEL
Sequence of MAFG (O15525 51-114 limits assumed): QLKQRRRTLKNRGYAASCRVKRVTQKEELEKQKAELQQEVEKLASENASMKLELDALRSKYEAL

In the case of “KRIAYLRQRIAELRNENHVLESRIQRMEKEKDALQQDRDHLEYEL [ATF5-d1]”, the Kd [1, 12] is reported as 0.0896 µM, the Kd [1, 13] is reported as 0.753 µM and the Kd [1, 14] is reported as > 5 µM. The Kd [1, 15] was > 5 µM, the Kd [2, 12] was > 5 µM and the Kd ([2]; 23°C, C-terminal rhodamine design, repeat 1) was > 5 µM. For the same sequence, the Kd ([2]; 23°C, C-terminal rhodamine design, repeat 2) was > 5 µM, the Kd [2, 13] was > 5 µM and the Kd [2, 14] was > 5 µM. For the same sequence, the Kd [2, 15] was > 5 µM, the Kd [3, 16] was > 5 µM and the Kd [3, 17] was > 1 µM. The Kd [3, 18] was > 1 µM, the Kd [3, 19] was > 1 µM and the Kd [3, 20] was > 1 µM. For the same sequence, the Kd [4, 16] was 0.119 µM, the Kd [4, 21] was > 5 µM and the Kd [4, 17] was > 5 µM. The Kd [4, 18] was > 5 µM, the Kd [4, 19] was > 5 µM and the Kd [4, 20] was > 5 µM. The Kd [5, 22] was 0.001 µM, the Kd [5, 12] was > 1 µM and the Kd [5, 23] was > 1 µM. For the same sequence, the Kd ([5]; 4°C, N-terminal rhodamine design, repeat 2) was > 1 µM, the Kd ([5]; 4°C, N-terminal rhodamine design, repeat 3) was > 1 µM and the Kd [5, 24] was 0.001 µM. For the same sequence, the Kd [5, 25] was > 5 µM, the Kd ([5]; 23°C, N-terminal rhodamine design, repeat 2) was > 5 µM and the Kd [6, 16] was > 5 µM. For the same sequence, the Kd [6, 21] was > 5 µM, the Kd [6, 17] was > 1 µM and the Kd [6, 18] was > 5 µM. The Kd [6, 19] was > 1 µM, the Kd [6, 20] was > 5 µM and the Kd [7, 16] was 0.133 µM. The Kd [7, 21] was 0.506 µM, the Kd [7, 17] was 0.589 µM and the Kd [7, 18] was > 5 µM. The Kd [7, 20] was > 1 µM, the Kd [8, 16] was > 5 µM and the Kd [8, 21] was > 1 µM. The Kd [8, 17] was > 5 µM, the Kd [8, 18] was > 1 µM and the Kd [8, 19] was > 1 µM. For the same sequence, the Kd [8, 20] was > 1 µM, the Kd [9, 22] was 0.266 µM and the Kd [9, 23] was > 5 µM. For the same sequence, the Kd [9, 24] was > 5 µM, the Kd [9, 25] was > 5 µM and the Kd ([9]; 37°C, C-terminal rhodamine design, mean or single) was > 5 µM. For the same sequence, the Kd ([9]; 37°C, N-terminal rhodamine design, repeat 1) was > 5 µM, the Kd [10, 16] was > 5 µM and the Kd [10, 21] was > 1 µM. For the same sequence, the Kd [10, 17] was > 1 µM, the Kd [10, 18] was > 1 µM and the Kd [10, 19] was 0.911 µM. For the same sequence, the Kd [10, 20] was > 1 µM, the Kd [11, 16] was 0.162 µM and the Kd [11, 21] was > 5 µM. The Kd [11, 17] was > 5 µM, the Kd [11, 18] was > 1 µM and the Kd [11, 19] was > 5 µM. For the same sequence, the Kd [11, 20] was > 1 µM.
